Assay results: patent US20250381242A1 (INVAIO SCIENCES, INC., priority 2024, published 2025)
No end group written: not given here.

What was measured:
E. amylovora = details: 24 h, 10 μM
E. coli = experiment: Bacterial growth inhibition by OD600 absorbance, E. coli; type: cell-based, E. coli (DH5-alpha); details: peptide 10 μM, 24 hours at 37° C., OD 600 nm
In short: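 Percent inhibition was calculated from initial and 24 h OD600 readings against DMSO (0.1%) and antibiotic controls. Cultures received 10 μM peptide and were incubated at 30° C. (X. citri) or 37° C. (E. coli).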

L. crescens = details: 10 μM
A. tumefaciens = details: 24 h, 10 μM
X. citri = experiment: Bacterial growth inhibition by OD600 absorbance, X. citri; type: cell-based, X. citri subsp. citri (ATCC 49118); details: peptide 10 μM, 24 hours at 30° C., OD 600 nm

Sequence	growth inhibition, E. amylovora (E. amylovora) [%]	growth inhibition, E. coli (E. coli) [%]	growth inhibition, L. crescens (L. crescens) [%]	growth inhibition, A. tumefaciens (A. tumefaciens) [%]	growth inhibition, X. citri (X. citri) [%]
KNWKGIAGMAKKLLGKNWKLM [compound 59]	100.00	<90	<90	99.61	100.00
KWAVRIIRKFIKGFIS [compound 88]	100.00	96.20	<90	100.00	<90
KWKSFIKKLTKKFLHSAKKF [compound 49]	100.00	<90	<90	100.00	100.00
KWKSFIKNLEKVLKKGPILANLVSIV [compound 23]	100.00	100.00	99.03	100.00	100.00
KWLKKWLKKWLK [compound 103]	100.00	98.34	<90	100.00	<90
KWVKKWVKKWVK [compound 110]	98.51	<90	<90	<90	100.00
KWYKKWYKKWYKKWYK [compound 54]	100.00	100.00	<90	99.49	100.00
LHRLVKLVAALLRGYASKVDTH [compound 53]	100.00	100.00	<90	100.00	100.00
LNWGALLKHLLK [compound 139]	100.00	<90	<90	100.00	<90
LRFLKKALKKLF [compound 129]	93.29	<90	<90	98.87	<90
LRFLKKILKHLF [compound 120]	100.00	100.00	<90	100.00	100.00
LVQRGRFGRFLKKVRRFIPKVIIAAQIGSRFG [compound 6]	98.64	99.36	<90	100.00	100.00
QKRPRVRLSAWKKIWKPGIKKWIK [compound 21]	100.00	<90	<90	96.97	100.00
RFRRLFRIRVRVLKKI [compound 72]	100.00	<90	<90	100.00	100.00
RKYVRFLHRWVKYFRAYL [compound 47]	<90	99.75	<90	<90	<90
RWKIFKKPFKISIHL [compound 90]	100.00	98.69	<90	100.00	<90
SWKSMAKKLKEYMEKLKQRA [compound 50]	100.00	<90	<90	99.59	<90
WFGHLYRGITKVVKHVHGLLKG [compound 40]	100.00	100.00	<90	100.00	100.00
WFGKLYRGITSVVKKVKGLLSG [compound 55]	100.00	100.00	<90	100.00	100.00
WIKIWKKIIKKWKK [compound 91]	100.00	<90	<90	98.97	<90
WKKIWKKIWKPGIKKWIKKWIK [compound 24]	98.38	100.00	<90	97.97	99.69
WKLKWKLKWKLK [compound 104]	99.91	<90	<90	100.00	<90
WLNALLHHGYKRKFH [compound 93]	<90	<90	<90	<90	<90
WLSKTAKKLWLSKTAKKLWLSKTAKKL [compound 15]	<90	<90	<90	<90	96.25
WWKAAAKAAAKWW [compound 117]	99.79	<90	<90	99.97	100.00
